Results reported in US20260132132A1, “3A,4,5,6-TETRAHYDRO-1 H-PYRAZOLO[3,4-C]PYRIDIN-7(7AH)-ONE DERIVATIVES AS FACTOR XIIA INHIBITORS” (KALVISTA PHARMACEUTICALS LIMITED, priority 2022, published 2026).

Key:
[1] = target: FXa (Homo sapiens, UniProt P00742); experiment: Related protease inhibition: FXa, fluorogenic substrate; format: biochemical; conditions: fluorogenic substrate at Km, 25° C.; H1-H3 = % activity at 40 μM
Description: Human serine protease enzyme Plasma Kallikrein, KLK1, FXa, Plasmin, Thrombin and Trypsin were assayed for enzymatic activity using an appropriate fluorogenic substrate at Km concentration, FXIa at fixed substrate concentration of 100 μM and various concentrations of the test compound.

[2] = target: T1, Human Factor XIIa (hFXIIa) (Homo sapiens, UniProt P00748); experiment: Determination of Human Factor XIIa (hFXIIa) inhibition, fluorogenic substrate IC50 assay; format: biochemical; conditions: fluorogenic substrate H-DPro-Phe-Arg-AFC at Km, 25° C., read-out: Human FXIIa IC50
T1 construct: purchased Enzyme Research Laboratories
T1 sequence (P00748 373-615 limits assumed): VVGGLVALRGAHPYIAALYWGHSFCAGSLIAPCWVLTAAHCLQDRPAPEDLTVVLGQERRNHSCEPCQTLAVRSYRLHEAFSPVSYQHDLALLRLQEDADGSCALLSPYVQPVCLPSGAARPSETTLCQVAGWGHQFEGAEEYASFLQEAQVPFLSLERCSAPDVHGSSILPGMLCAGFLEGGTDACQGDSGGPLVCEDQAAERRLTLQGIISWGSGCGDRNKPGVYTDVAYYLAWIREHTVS
T1 sequence (P00748 20-372 partner limits assumed): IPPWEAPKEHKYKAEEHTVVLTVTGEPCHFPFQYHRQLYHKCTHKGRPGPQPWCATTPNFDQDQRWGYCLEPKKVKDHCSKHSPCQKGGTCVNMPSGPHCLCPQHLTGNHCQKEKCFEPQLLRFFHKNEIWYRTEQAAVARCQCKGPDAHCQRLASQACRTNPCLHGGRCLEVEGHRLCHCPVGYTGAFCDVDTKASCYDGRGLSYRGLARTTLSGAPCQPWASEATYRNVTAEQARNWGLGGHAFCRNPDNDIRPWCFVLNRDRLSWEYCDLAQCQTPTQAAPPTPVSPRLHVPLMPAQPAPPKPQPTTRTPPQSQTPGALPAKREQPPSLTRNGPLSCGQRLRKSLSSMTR
Description: Determination of Human Factor XIIa (hFXIIa) inhibition
The Km for the cleavage of the substrate by hFXIIa was determined by standard transformation of the Michaelis-Menten equation, with subsequent inhibition assays performed at substrate Km concentration.

FXa, sequence (P00742 235-488 limits assumed): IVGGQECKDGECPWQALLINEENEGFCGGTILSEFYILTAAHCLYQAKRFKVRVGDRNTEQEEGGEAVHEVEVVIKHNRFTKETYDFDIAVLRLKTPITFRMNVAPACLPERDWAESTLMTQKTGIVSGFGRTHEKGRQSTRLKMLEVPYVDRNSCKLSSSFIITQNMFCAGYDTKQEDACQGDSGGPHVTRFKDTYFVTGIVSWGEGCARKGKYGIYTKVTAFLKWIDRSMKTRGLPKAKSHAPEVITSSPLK
FXa, sequence (P00742 41-179 partner limits assumed): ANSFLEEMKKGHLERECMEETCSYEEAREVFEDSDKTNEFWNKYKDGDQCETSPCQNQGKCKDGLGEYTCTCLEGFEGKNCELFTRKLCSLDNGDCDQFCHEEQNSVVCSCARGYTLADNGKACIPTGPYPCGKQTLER

Q: With `Cc1cc(CNC(=O)c2nn(-c3cccc(Cl)c3)c3c2CCN(c2ccc4c(c2)C(=O)N(C)C4)C3=O)nn1C` [Example 1206, 1-(3-chlorophenyl)-N-((1,5-dimethyl-1H-pyrazol-3-yl)methyl)-6-(2-methyl-3-oxoisoindolin-5-yl)-7-oxo-4,5,6,7-tetrahydro-1H-pyrazolo[3,4-c]pyridine-3-carboxamide] as the molecule, how does the IC50 [1] read?
A: > 40000 nM

Q: What about the IC50 [2] of the same molecule?
A: 1000 to 3000 nM

Q: What does the source list for `O=C(NCc1cccnc1)c1nn(-c2cccc(Cl)c2)c2c1CCN(c1cccc(CN3CCCCC3)c1)C2=O` [Example 1003, 1-(3-chlorophenyl)-7-oxo-6-(3-(piperidin-1-ylmethyl)phenyl)-N-(pyridin-3-ylmethyl)-4,5,6,7-tetrahydro-1H-pyrazolo[3,4-c]pyridine-3-carboxamide]?
A: IC50 [1]: > 100000 nM; IC50 [2]: 300 to 1000 nM

Q: How did the IC50 [1] turn out when `O=C(NCC1CC1)c1nn(-c2cccc(Cl)c2)c2c1CCN(c1cc3c(cn1)CCN(CCO)C3)C2=O` [Example 1118, 1-(3-chlorophenyl)-N-(cyclopropylmethyl)-6-(6-(2-hydroxyethyl)-5,6,7,8-tetrahydro-2,6-naphthyridin-3-yl)-7-oxo-4,5,6,7-tetrahydro-1H-pyrazolo[3,4-c]pyridine-3-carboxamide] was run?
A: > 40000 nM

Q: What about the IC50 [2] of the same molecule?
A: 100 to 300 nM

Q: Which IC50 [1] does the source give for `Cc1ncc(CNC(=O)c2nn(-c3cccc(Cl)c3)c3c2CCN(c2ccc4c(c2)C(=O)N(C)CC4)C3=O)s1` [Example 1193, 1-(3-chlorophenyl)-6-(2-methyl-1-oxo-1,2,3,4-tetrahydroisoquinolin-7-yl)-N-((2-methylthiazol-5-yl)methyl)-7-oxo-4,5,6,7-tetrahydro-1H-pyrazolo[3,4-c]pyridine-3-carboxamide] here?
A: > 40000 nM

Q: And the IC50 [2]?
A: 100 to 300 nM

Q: How did the IC50 [1] turn out when `CN1CCCc2ccc(N3CCc4c(C(=O)NCc5ccccc5)nn(-c5cccc(Cl)c5)c4C3=O)cc2C1` [Example 1030, N-benzyl-1-(3-chlorophenyl)-6-(2-methyl-2,3,4,5-tetrahydro-1H-benzo[c]azepin-8-yl)-7-oxo-4,5,6,7-tetrahydro-1H-pyrazolo[3,4-c]pyridine-3-carboxamide] was run?
A: 3000 to 10000 nM

Q: What about the IC50 [2] of the same molecule?
A: 100 to 300 nM

Q: With `CN1CCc2ccc(N3CCc4c(C(=O)NC5CCOCC5)nn(-c5cccc(Cl)c5)c4C3=O)cc2C1=O` [Example 1203, 1-(3-chlorophenyl)-6-(2-methyl-1-oxo-1,2,3,4-tetrahydroisoquinolin-7-yl)-7-oxo-N-(tetrahydro-2H-pyran-4-yl)-4,5,6,7-tetrahydro-1H-pyrazolo[3,4-c]pyridine-3-carboxamide] as the molecule, how does the IC50 [1] read?
A: > 40000 nM

Q: What about the IC50 [2] of the same molecule?
A: 100 to 300 nM

Q: For `C[C@@H](NC(=O)c1nn(-c2cccc(Cl)c2)c2c1CCN(c1ccc3c(c1)C(=O)N(C)CC3)C2=O)C(=O)O` [Example 1387, (1-(3-chlorophenyl)-6-(2-methyl-1-oxo-1,2,3,4-tetrahydroisoquinolin-7-yl)-7-oxo-4,5,6,7-tetrahydro-1H-pyrazolo[3,4-c]pyridine-3-carbonyl)-D-alanine], which IC50 [1] is on record?
A: 10000 to 40000 nM

Q: What about the IC50 [2] of the same molecule?
A: 1000 to 3000 nM

Q: What does the source list for `Cc1nc2c(C(=O)NCC3CC3)nn(-c3cccc(Cl)c3)c2c(=O)n1-c1ccc2c(c1)C(=O)N(C)CC2` [Example 3014, 1-(3-chlorophenyl)-N-(cyclopropylmethyl)-5-methyl-6-(2-methyl-1-oxo-1,2,3,4-tetrahydroisoquinolin-7-yl)-7-oxo-6,7-dihydro-1H-pyrazolo[4,3-d]pyrimidine-3-carboxamide]?
A: IC50 [1]: > 40000 nM; IC50 [2]: 100 to 300 nM

Q: Which IC50 [1] does the source give for `O=C(NCc1ccn(C2CC2)n1)c1nn(-c2cccc(Cl)c2)c2c1CCN(c1ccc3c(c1)CN(CCO)CC3)C2=O` [Example 1146, 1-(3-chlorophenyl)-N-((1-cyclopropyl-1H-pyrazol-3-yl)methyl)-6-(2-(2-hydroxyethyl)-1,2,3,4-tetrahydroisoquinolin-7-yl)-7-oxo-4,5,6,7-tetrahydro-1H-pyrazolo[3,4-c]pyridine-3-carboxamide] here?
A: 10000 to 40000 nM

Q: And the IC50 [2]?
A: 10 to 100 nM

Q: Which IC50 [1] does the source give for `CN1CCc2ccc(N3CCc4c(C(=O)NCC5CC5)nn(-c5cccc(Cl)c5)c4C3=O)cc2C1` [Example 1012, 1-(3-chlorophenyl)-N-(cyclopropylmethyl)-6-(2-methyl-1,2,3,4-tetrahydroisoquinolin-7-yl)-7-oxo-4,5,6,7-tetrahydro-1H-pyrazolo[3,4-c]pyridine-3-carboxamide] here?
A: 10000 to 40000 nM

Q: What about the IC50 [2] of the same molecule?
A: 300 to 1000 nM

Q: For `CCNC(=O)c1nn(-c2cccc(Cl)c2)c2c1CCN(c1cccc(N3CCC4(CC4)C3=O)c1)C2=O` [Example 1400, 1-(3-chlorophenyl)-N-ethyl-7-oxo-6-(3-(4-oxo-5-azaspiro[2.4]heptan-5-yl)phenyl)-4,5,6,7-tetrahydro-1H-pyrazolo[3,4-c]pyridine-3-carboxamide], which IC50 [1] is on record?
A: > 40000 nM

Q: What about the IC50 [2] of the same molecule?
A: 1000 to 3000 nM

Q: `Cc1cc(CNC(=O)c2nn(-c3cccc(Cl)c3)c3c2CCN(c2cc4c(cc2F)CCN(CCO)C4)C3=O)[nH]n1` [Example 1125, 1-(3-chlorophenyl)-6-(6-fluoro-2-(2-hydroxyethyl)-1,2,3,4-tetrahydroisoquinolin-7-yl)-N-((3-methyl-1H-pyrazol-5-yl)methyl)-7-oxo-4,5,6,7-tetrahydro-1H-pyrazolo[3,4-c]pyridine-3-carboxamide] was tested. Which IC50 [1] did it give?
A: 10000 to 40000 nM

Q: And the IC50 [2]?
A: 10 to 100 nM

Q: `Cn1ccc(CNC(=O)c2nn(-c3cccc(Cl)c3)c3c2CCN(c2ccc4c(c2)CN(CCO)CC4)C3=O)n1` [Example 1132, 1-(3-chlorophenyl)-6-(2-(2-hydroxyethyl)-1,2,3,4-tetrahydroisoquinolin-7-yl)-N-((1-methyl-1H-pyrazol-3-yl)methyl)-7-oxo-4,5,6,7-tetrahydro-1H-pyrazolo[3,4-c]pyridine-3-carboxamide] was tested. Which IC50 [1] did it give?
A: 10000 to 40000 nM

Q: What about the IC50 [2] of the same molecule?
A: 10 to 100 nM

Q: How did the IC50 [1] turn out when `CN1CCc2ccc(N3CCc4c(C(=O)NCC5CCCO5)nn(-c5cccc(Cl)c5)c4C3=O)cc2C1` (stereo not shown) [Example 1025, 1-(3-chlorophenyl)-6-(2-methyl-1,2,3,4-tetrahydroisoquinolin-7-yl)-7-oxo-N-((tetrahydrofuran-2-yl)methyl)-4,5,6,7-tetrahydro-1H-pyrazolo[3,4-c]pyridine-3-carboxamide] was run?
A: 3000 to 10000 nM

Q: And the IC50 [2]?
A: 300 to 1000 nM

Q: With `O=C(NCc1cc(C2CC2)n[nH]1)c1nn(-c2cccc(Cl)c2)c2c1CCN(c1cccc(CN3CCCCC3)c1)C2=O` [Example 1237, 1-(3-chlorophenyl)-N-((3-cyclopropyl-1H-pyrazol-5-yl)methyl)-7-oxo-6-(3-(piperidin-1-ylmethyl)phenyl)-4,5,6,7-tetrahydro-1H-pyrazolo[3,4-c]pyridine-3-carboxamide] as the molecule, how does the IC50 [1] read?
A: > 40000 nM

Q: What about the IC50 [2] of the same molecule?
A: 100 to 300 nM

Q: How did the IC50 [1] turn out when `CCNC(=O)c1nn(-c2cc(Cl)cc(CO)c2)c2c1CCN(c1ccc3c(c1)C(=O)N(C)CC3)C2=O` [Example 2033, 1-(3-chloro-5-(hydroxymethyl)phenyl)-N-ethyl-6-(2-methyl-1-oxo-1,2,3,4-tetrahydroisoquinolin-7-yl)-7-oxo-4,5,6,7-tetrahydro-1H-pyrazolo[3,4-c]pyridine-3-carboxamide] was run?
A: > 40000 nM

Q: What about the IC50 [2] of the same molecule?
A: 300 to 1000 nM

Q: Which IC50 [1] does the source give for `O=C(NCc1ncco1)c1nn(-c2cccc(Cl)c2)c2c1CCN(c1ccc3c(c1)CN(CCO)CC3)C2=O` [Example 1151, 1-(3-chlorophenyl)-6-(2-(2-hydroxyethyl)-1,2,3,4-tetrahydroisoquinolin-7-yl)-N-(oxazol-2-ylmethyl)-7-oxo-4,5,6,7-tetrahydro-1H-pyrazolo[3,4-c]pyridine-3-carboxamide] here?
A: 10000 to 40000 nM

Q: What about the IC50 [2] of the same molecule?
A: 100 to 300 nM

Q: `Cc1cc(CNC(=O)c2nn(-c3cccc(Cl)c3)c3c2CCN(c2ccc4c(c2)C(=O)N(CCO)[C@@H](C)CO4)C3=O)nn1C` [Example 1379, (S)-1-(3-chlorophenyl)-N-((1,5-dimethyl-1H-pyrazol-3-yl)methyl)-6-(4-(2-hydroxyethyl)-3-methyl-5-oxo-2,3,4,5-tetrahydrobenzo[f][1,4]oxazepin-7-yl)-7-oxo-4,5,6,7-tetrahydro-1H-pyrazolo[3,4-c]pyridine-3-carboxamide] was tested. Which IC50 [1] did it give?
A: 3000 to 10000 nM

Q: What about the IC50 [2] of the same molecule?
A: 300 to 1000 nM

Q: With `COc1cccnc1CNC(=O)c1nn(-c2cccc(Cl)c2)c2c1CCN(c1cc3c(nn1)CCN(CCO)C3)C2=O` [Example 1229, 1-(3-chlorophenyl)-6-(6-(2-hydroxyethyl)-5,6,7,8-tetrahydropyrido[4,3-c]pyridazin-3-yl)-N-((3-methoxypyridin-2-yl)methyl)-7-oxo-4,5,6,7-tetrahydro-1H-pyrazolo[3,4-c]pyridine-3-carboxamide] as the molecule, how does the IC50 [1] read?
A: 10000 to 40000 nM

Q: And the IC50 [2]?
A: 100 to 300 nM

Q: Which results are given for `O=C(NCC1CC1)c1nn(-c2cccc(Cl)c2)c2c1CCN(c1cccc(CN3CCCCC3)c1)C2=O` [Example 1002, 1-(3-chlorophenyl)-N-(cyclopropylmethyl)-7-oxo-6-(3-(piperidin-1-ylmethyl)phenyl)-4,5,6,7-tetrahydro-1H-pyrazolo[3,4-c]pyridine-3-carboxamide]?
A: IC50 [1]: > 10000 nM; IC50 [2]: 300 to 1000 nM
